Data reported in the NIST ThermoML archive (doi:10.1016/j.jct.2019.06.029).
Numbers after ± are expanded uncertainties.

Assay: wn = mass fraction of the nth substance listed
Conditions: 100 kPa, Liquid; for viscosity: Falling or rolling sphere viscometry; for speed of sound: Frequency=3 MHz, Single path-length method; for mass density: Vibrating tube method

O [water] + CCCCCC[n+]1ccc(C)cc1.[Br-]
w2 = 0
Conditions	viscosity [mPa·s]
288.15 K	1.136 ± 0.046
293.15 K	1.001 ± 0.041
298.15 K	0.89 ± 0.036
303.15 K	0.797 ± 0.032
308.15 K	0.718 ± 0.029

CCCC[n+]1ccc(C)cc1.[Br-] [1-butyl-4-methylpyridinium bromide] + O
Conditions	mass density, w1 = 0.01 [kg/m3]	mass density, w1 = 0.015 [kg/m3]	mass density, w1 = 0.02 [kg/m3]	speed of sound, w1 = 0.01 [m/s]	speed of sound, w1 = 0.015 [m/s]	speed of sound, w1 = 0.02 [m/s]	viscosity, w1 = 0.01 [mPa·s]	viscosity, w1 = 0.015 [mPa·s]	viscosity, w1 = 0.02 [mPa·s]
288.15 K	1001.16 ± 0.64	1002.26 ± 0.64	1003.42 ± 0.64	1472.7 ± 2.1	1475.5 ± 2.1	1478 ± 2.1	1.165 ± 0.047	1.176 ± 0.048	1.195 ± 0.049
293.15 K	1000.23 ± 0.64	1001.31 ± 0.64	1002.47 ± 0.64	1488.2 ± 2.1	1490.8 ± 2.1	1493.3 ± 2	1.024 ± 0.042	1.037 ± 0.042	1.044 ± 0.043
298.15 K	999.051 ± 0.63	1000.13 ± 0.64	1001.26 ± 0.64	1501.9 ± 2.1	1504.1 ± 2.1	1506.5 ± 2	0.907 ± 0.037	0.919 ± 0.037	0.926 ± 0.038
303.15 K	997.647 ± 0.63	998.68 ± 0.64	999.765 ± 0.64	1513.7 ± 2	1515.7 ± 2	1517 ± 2	0.813 ± 0.033	0.824 ± 0.034	0.833 ± 0.034
308.15 K	996.019 ± 0.63	996.958 ± 0.64	998.102 ± 0.64	1523.9 ± 2	1525.8 ± 2	1527.7 ± 2	0.734 ± 0.03	0.745 ± 0.03	0.75 ± 0.031

O [water] + CCCCCCCC[n+]1ccc(C)cc1.[Br-]
w2 = 0
Conditions	viscosity [mPa·s]
288.15 K	1.136 ± 0.046
293.15 K	1.001 ± 0.041
298.15 K	0.89 ± 0.036
303.15 K	0.797 ± 0.032
308.15 K	0.718 ± 0.029

O [water] + CCCC[n+]1ccc(C)cc1.[Br-]
w2 = 0
Conditions	viscosity [mPa·s]
288.15 K	1.136 ± 0.046
293.15 K	1.001 ± 0.041
298.15 K	0.89 ± 0.036
303.15 K	0.797 ± 0.032
308.15 K	0.718 ± 0.029

CCCCCC[n+]1ccc(C)cc1.[Br-] [1-hexyl-4-methylpyridinium bromide] + O
Conditions	mass density, w1 = 0.01 [kg/m3]	mass density, w1 = 0.015 [kg/m3]	mass density, w1 = 0.02 [kg/m3]	speed of sound, w1 = 0.01 [m/s]	speed of sound, w1 = 0.015 [m/s]	speed of sound, w1 = 0.02 [m/s]	viscosity, w1 = 0.01 [mPa·s]	viscosity, w1 = 0.015 [mPa·s]	viscosity, w1 = 0.02 [mPa·s]
288.15 K	1000.9 ± 0.63	1001.79 ± 0.62	1002.56 ± 0.62	1473.1 ± 2.1	1476.5 ± 2.1	1479.6 ± 2.1	1.172 ± 0.048	1.183 ± 0.048	1.195 ± 0.049
293.15 K	999.956 ± 0.62	1000.82 ± 0.63	1001.8 ± 0.62	1488.7 ± 2.1	1491.6 ± 2.1	1493.8 ± 2.1	1.028 ± 0.042	1.039 ± 0.042	1.05 ± 0.043
298.15 K	998.796 ± 0.62	999.636 ± 0.62	1000.38 ± 0.62	1502.2 ± 2.1	1504.9 ± 2.1	1507.5 ± 2	0.913 ± 0.037	0.924 ± 0.038	0.934 ± 0.038
303.15 K	997.389 ± 0.62	998.196 ± 0.62	998.926 ± 0.61	1514 ± 2.1	1516.4 ± 2.1	1518.9 ± 2	0.817 ± 0.033	0.824 ± 0.034	0.834 ± 0.034
308.15 K	995.718 ± 0.62	996.546 ± 0.62	997.238 ± 0.62	1524 ± 2	1526.2 ± 2.1	1528.6 ± 2.1	0.738 ± 0.03	0.746 ± 0.03	0.753 ± 0.031

CCCCCCCC[n+]1ccc(C)cc1.[Br-] [1-octyl-4-methylpyridinium bromide] + O
Conditions	mass density, w1 = 0.01 [kg/m3]	mass density, w1 = 0.015 [kg/m3]	mass density, w1 = 0.02 [kg/m3]	speed of sound, w1 = 0.01 [m/s]	speed of sound, w1 = 0.015 [m/s]	speed of sound, w1 = 0.02 [m/s]	viscosity, w1 = 0.01 [mPa·s]	viscosity, w1 = 0.015 [mPa·s]	viscosity, w1 = 0.02 [mPa·s]
288.15 K	1000.54 ± 0.62	1001.29 ± 0.62	1002.09 ± 0.62	1473.8 ± 2.1	1477 ± 2.1	1480.5 ± 2.1	1.179 ± 0.048	1.196 ± 0.049	1.217 ± 0.05
293.15 K	999.566 ± 0.62	1000.32 ± 0.62	1001.1 ± 0.62	1489.1 ± 2.1	1492.2 ± 2.1	1495.3 ± 2.1	1.031 ± 0.042	1.046 ± 0.043	1.063 ± 0.044
298.15 K	998.379 ± 0.62	999.123 ± 0.62	999.874 ± 0.62	1502.6 ± 2.1	1505.3 ± 2.1	1508.2 ± 2.1	0.915 ± 0.037	0.929 ± 0.038	0.941 ± 0.038
303.15 K	996.945 ± 0.62	997.706 ± 0.62	998.407 ± 0.61	1514.5 ± 2.1	1516.7 ± 2.1	1519.5 ± 2.1	0.817 ± 0.033	0.833 ± 0.034	0.844 ± 0.034
308.15 K	995.3 ± 0.62	996.048 ± 0.62	996.742 ± 0.62	1524.5 ± 2.1	1526.4 ± 2.1	1528.8 ± 2.1	0.737 ± 0.03	0.749 ± 0.031	0.76 ± 0.031
